Reference: patent US12522582B2 (Gilead Sciences, Inc., priority 2022, dated 2026)
Read-outs that look alike come from different tables or passages of the source.

Test system: HSV-2 virus (MS strain)
Assay: HSV-2 Cellomics Assay (immunofluorescence of HSV protein gD in infected ARPE-19 cells)
Conditions: Human alphaherpesvirus 2, ARPE-19, 16 h
[1] = read-out: EC50-HSV2-10% Human Serum

Method: Compounds were tested for their ability to inhibit HSV-2 replication by monitoring the expression of the HSV protein gD using a high-throughput immunofluorescence-based assay. 10-dose, 3-fold serial dilutions of compounds were prepared at starting concentrations of 0.2 or 2 mM in 100% DMSO. […] The final starting concentration in the assay was either 1 or 10 μM. DMSO (no compound) and pritelivir were included on each microplate as negative and positive controls, respectively.
Prior to confluence, cells were transferred to a centrifuge tube and spun for 5 minutes at 1000 rpm. Cells were resuspended in assay medium (DMEM/F-12 Glutamax, 2% FBS, 1% Penicillin-Streptomycin) and counted. Cell density was adjusted to 150,000 cells/ml and infected with HSV-2 virus (MS strain, ATCC cat #VR-540) at a MOI of 0.06 in a 50 ml conical tube for 1 hour under constant rocking. Cells were then spun for 5 minutes at 1000 rpm and the media replaced with assay medium containing either 2% FBS or 10% human serum (EMD Millipore cat #S1-100 ML). 50 μl of the infection suspension were added into microplate wells that were pre-spotted with compounds (7,500 cells per well). Plates were incubated for 16 hours at 37° C.
After a 30-minute incubation at room temperature, plates were washed 4 times with 100 μl/well of PBS using a Biotek plate washer. […] Plates were washed 4 times again and 50 μl of DPBS were added to all wells prior to sealing the plates with a black adhesive seal. Fluorescence was measured on a Cellomics plate reader.
Data analysis was carried out using the Thermo Scientific HCS Studio software. Briefly, cells were identified using the DAPI nuclear stain and thresholds were set to filter cells out based on shape and size. A second threshold based on green fluorescence intensity (detection of HSV-2 gD) was set to identify HSV-2 infected cells. Data was reported as the average fluorescence intensity of HSV-2 infected cells.

SMILES | EC50 [1] [nM] | EC50 (read-out: EC50-HSV2-FBS) [nM]
CS(=N)(=O)c1cc2c(cc1F)CCN2C(=O)[C@@H]1Cc2ccc(-c3ccccn3)cc2C1 (mixture of isomers) [Example 39, (5-fluoro-1-((R)-5-(pyridin-2-yl)-2,3-dihydro-1H-indene-2-carbonyl)indolin-6-yl)(imino)(methyl)-λ^6-sulfanone] | 188 | 45
CC1CN(C(=O)[C@H]2Cc3cc(-c4ccccn4)ccc3[C@@H]2C)c2cc(S(N)(=O)=O)c(F)cc21 (mixture of isomers) [Example 103, 5-fluoro-3-methyl-1-((1R,2S)-1-methyl-5-(pyridin-2-yl)-2,3-dihydro-1H-indene-2-carbonyl) indoline-6-sulfonamide] | 221 | 36
CCC1Cc2cc(F)c(S(=N)(=O)O)cc2N1C(=O)[C@@H]1Cc2ccc(-c3ccccn3)cc2C1 (mixture of isomers) [Example 112] | 579 | 81
C[C@@H]1Cc2ccc(S(N)(=O)=O)cc2N1C(=O)[C@H]1Cc2ccc(-c3ccccn3)cc2C1 (single isomer, unassigned) [Example 14] |  | 2480
C[C@H]1Cc2ccc(S(N)(=O)=O)cc2N1C(=O)[C@H]1Cc2ccc(-c3ccccn3)cc2C1 (single isomer, unassigned) [Example 17] |  | 551
C[S@@](=N)(=O)c1ccc2c(c1)N(C(=O)[C@@H]1Cc3ccc(-c4ccccn4)cc3C1)CC2 (single isomer, unassigned) [Example 31] | 9380 | 849
C[C@@H]1CN(C(=O)[C@H]2Cc3cc(-c4ccccn4)ccc3[C@@H]2C)c2cc(S(N)(=O)=O)c(F)cc21 (single isomer, unassigned) [Example 105] | 251 | 45
Cc1c(S(N)(=O)=O)ccc2c1N(C(=O)C1Cc3ccc(-c4ccccn4)cc3C1)CC2 (stereo not drawn) [Example 1] |  | 721
Cc1cc(S(N)(=O)=O)cc2c1CCN2C(=O)C1Cc2ccc(-c3ccccn3)cc2C1 (stereo not drawn) [Example 2] | 23600 | 65
NS(=O)(=O)c1ccc2c(c1F)N(C(=O)C1Cc3ccc(-c4ccccn4)cc3C1)CC2 (stereo not drawn) [Example 4] | ≥ 25000 | 284
NS(=O)(=O)c1cc(F)c2c(c1)N(C(=O)C1Cc3ccc(-c4ccccn4)cc3C1)CC2 (stereo not drawn) [Example 6] | ≥ 25000 | 72
NS(=O)(=O)c1cc(Cl)c2c(c1)N(C(=O)C1Cc3ccc(-c4ccccn4)cc3C1)CC2 (stereo not drawn) [Example 7] | ≥ 25000 | 62
NS(=O)(=O)c1ccc2c(c1)N(C(=O)C1Cc3cc(F)c(-c4ccccn4)cc3C1)CC2 (stereo not drawn) [Example 9] | 2600 | 105
NS(=O)(=O)c1ccc2c(c1)N(C(=O)C1Cc3ccc(-c4ccccn4)c(F)c3C1)CC2 (stereo not drawn) [Example 10] |  | 537
NS(=O)(=O)c1ccc2c(c1)N(C(=O)C1Cc3ccc(-c4ccccn4)c(Cl)c3C1)CC2 (stereo not drawn) [Example 11] |  | 7660
NS(=O)(=O)c1ccc2c(c1)N(C(=O)C1Cc3cc(Cl)c(-c4ccccn4)cc3C1)CC2 (stereo not drawn) [Example 12] |  | 5040
NS(=O)(=O)c1cc2c(cc1F)CCN2C(=O)C1Cc2cc(-c3ccccn3)cc(F)c2C1 (stereo not drawn) [Example 13] | ≥ 10000 | 250
NS(=O)(=O)c1ccc2c(c1)N(C(=O)C1Cc3ccc(-c4cncc(F)n4)cc3C1)CC2 (stereo not drawn) [Example 18] |  | 180
NS(=O)(=O)c1ccc2c(c1)N(C(=O)C1Cc3ccc(-c4nccs4)cc3C1)CC2 (stereo not drawn) [Example 20] |  | 91
Cc1csc(-c2ccc3c(c2)CC(C(=O)N2CCc4ccc(S(N)(=O)=O)cc42)C3)n1 (stereo not drawn) [Example 22] |  | 48
NS(=O)(=O)c1ccc2c(c1)N(C(=O)C1Cc3ccc(-c4ccsn4)cc3C1)CC2 (stereo not drawn) [Example 24] | ≥ 25000 | 19
Cc1nc(-c2ccc3c(c2)CC(C(=O)N2CCc4ccc(S(N)(=O)=O)cc42)C3)cs1 (stereo not drawn) [Example 25] | ≥ 25000 | 32
COc1nc(-c2ccc3c(c2)CC(C(=O)N2CCc4ccc(S(N)(=O)=O)cc42)C3)cs1 (stereo not drawn) [Example 26] |  | 131

SMILES | EC50 [1] [nM] | EC50 (read-out: EC50-HSV2-FBS) [nM]
N#Cc1nc(-c2ccc3c(c2)CC(C(=O)N2CCc4ccc(S(N)(=O)=O)cc42)C3)cs1 (stereo not drawn) [Example 27] |  | 383
CS(=N)(=O)c1ccc2c(c1)N(C(=O)C1Cc3ccc(-c4ccccn4)cc3C1)CC2 (stereo not drawn) [Example 29, imino(methyl)(1-(5-(pyridin-2-yl)-2,3-dihydro-1H-indene-2-carbonyl)indolin-6-yl)-λ^6-sulfanone] | 3240 | 193
C[S@@](=N)(=O)c1cc2c(cc1F)CCN2C(=O)[C@@H]1Cc2ccc(-c3ccccn3)cc2C1 [Example 40, (R)-(5-fluoro-1-((R)-5-(pyridin-2-yl)-2,3-dihydro-1H-indene-2-carbonyl)indolin-6-yl)(imino)(methyl)-16-sulfanone] | 816 | 196
C[C@@H]1Cc2cc(F)c(S(N)(=O)=O)cc2N1C(=O)[C@@H]1Cc2cc(-c3ccccn3)ccc2O1 [Example 43] | 9270 | 352
NS(=O)(=O)c1ccc2c(c1)N(C(=O)[C@@H]1Cc3ccc(-c4cc(F)ccc4F)cc3C1)CC2 [Example 45, (R)-1-(5-(2,5-difluorophenyl)-2,3-dihydro-1H-indene-2-carbonyl)indoline-6-sulfonamide] | ≥ 10000 | 67
C[C@@H]1c2cc(F)c(S(N)(=O)=O)cc2N(C(=O)[C@@H]2Cc3ccc(-c4ccccn4)cc3C2)[C@H]1C [Example 47, (2S,3R)-5-fluoro-2,3-dimethyl-1-((R)-5-(pyridin-2-yl)-2,3-dihydro-1H-indene-2-carbonyl)indoline-6-sulfonamide] | 3660 | 423
C[C@H]1c2cc(F)c(S(N)(=O)=O)cc2N(C(=O)[C@@H]2Cc3ccc(-c4ccccn4)cc3C2)[C@H]1C [Example 49, (2S,3S)-5-fluoro-2,3-dimethyl-1-((R)-5-(pyridin-2-yl)-2,3-dihydro-1H-indene-2-carbonyl)indoline-6-sulfonamide] | 1040 | 162
CS(=N)(=O)c1cc2c(cc1F)CCN2C(=O)[C@@H]1Cc2ccc(-c3cc(F)ccc3F)cc2C1 (stereo partly drawn) [Example 51, (1-((R)-5-(2,5-difluorophenyl)-2,3-dihydro-1H-indene-2-carbonyl)-5-fluoroindolin-6-yl)(imino)(methyl)-λ^6-sulfanone] | 239 | 53
C[S@@](=N)(=O)c1cc2c(cc1F)CCN2C(=O)[C@@H]1Cc2ccc(-c3cc(F)ccc3F)cc2C1 [Example 52] | 2000 | 340
C[C@H]1Cc2ccc(S(N)(=O)=O)cc2N1C(=O)C1Cc2cc(-c3ccccn3)ccc2O1 (stereo partly drawn) [Example 56] | 2220 | 255
C[C@H]1Cc2cc(Cl)c(S(N)(=O)=O)cc2N1C(=O)[C@@H]1Cc2ccc(-c3ccccn3)cc2C1 [Example 59, (S)-5-chloro-2-methyl-1-((R)-5-(pyridin-2-yl)-2,3-dihydro-1H-indene-2-carbonyl)indoline-6-sulfonamide] | ≥ 10000 | 385
NS(=O)(=O)c1ccc2c(c1)N(C(=O)C1Cc3ccc(-c4ccccc4)cc3C1)CC2 (stereo not drawn) [Example 69, 1-(5-phenyl-2,3-dihydro-1H-indene-2-carbonyl) indoline-6-sulfonamide] | ≥ 25000 | 119
NS(=O)(=O)c1ccc2c(c1)N(C(=O)C1Cc3ccc(-c4ccccn4)cc3C1)CC2 (stereo not drawn) [Example 71, 1-(5-(pyridin-2-yl)-2,3-dihydro-1H-indene-2-carbonyl) indoline-6-sulfonamide] | ≥ 25000 | 30
COc1cncc(-c2ccc3c(c2)CC(C(=O)N2CCc4ccc(S(N)(=O)=O)cc42)C3)n1 (stereo not drawn) [Example 72] | 12300 | 252
COc1cccc(-c2ccc3c(c2)CC(C(=O)N2CCc4ccc(S(N)(=O)=O)cc42)C3)n1 (stereo not drawn) [Example 77] | 10500 | 121
NS(=O)(=O)c1ccc2c(c1)N(C(=O)C1Cc3ccc(-n4cncn4)cc3C1)CC2 (stereo not drawn) [Example 79, 1-(5-(1H-1,2,4-triazol-1-yl)-2,3-dihydro-1H-indene-2-carbonyl)indoline-6-sulfonamide] |  | 2060
NS(=O)(=O)c1ccc2c(c1)N(C(=O)[C@H]1Cc3ccc(-c4ccccn4)cc3C1)CC2 [Example 80, (S)-1-(5-(pyridin-2-yl)-2,3-dihydro-1H-indene-2-carbonyl)indoline-6-sulfonamide] |  | 409
NS(=O)(=O)c1ccc2c(c1)N(C(=O)[C@H]1Cc3ccc(-c4ccccc4F)cc3C1)CC2 [Example 82, (S)-1-(5-(2-fluorophenyl)-2,3-dihydro-1H-indene-2-carbonyl)indoline-6-sulfonamide] |  | 8040
NS(=O)(=O)c1ccc2c(c1)N(C(=O)[C@@H]1Cc3ccc(-c4ccccc4F)cc3C1)CC2 [Example 83, (R)-1-(5-(2-fluorophenyl)-2,3-dihydro-1H-indene-2-carbonyl)indoline-6-sulfonamide] | ≥ 25000 | 177
CC1c2ccc(-c3ccccn3)cc2CC1C(=O)N1CCc2ccc(S(N)(=O)=O)cc21 (stereo not drawn) [Example 92] | 238 | 28
C[C@@H]1c2ccc(-c3ccccn3)cc2C[C@H]1C(=O)N1CCc2ccc(S(N)(=O)=O)cc21 [Example 93, 1-((1S,2R)-1-methyl-5-(pyridin-2-yl)-2,3-dihydro-1H-indene-2-carbonyl)indoline-6-sulfonamide] | ≥ 25000 | 1850
CC1c2cc(-c3ccccn3)ccc2CC1C(=O)N1CCc2ccc(S(N)(=O)=O)cc21 (stereo not drawn) [Example 95, 1-(1-methyl-6-(pyridin-2-yl)-2,3-dihydro-1H-indene-2-carbonyl) indoline-6-sulfonamide] | ≥ 25000 | 2850
C[C@@H]1c2ccc(-c3ccccn3)cc2C[C@H]1C(=O)N1CCc2cc(F)c(S(N)(=O)=O)cc21 [Example 98, 5-fluoro-1-((1S,2R)-1-methyl-5-(pyridin-2-yl)-2,3-dihydro-1H-indene-2-carbonyl)indoline-6-sulfonamide] | 6650 | 1360
